Key:
Settings in all cases: 72 h
[1] = tested on: Calu-3; assay: cell viability relative to DMSO; higher = less toxic
[2] = tested on: U2OS; assay: as above
[3] = tested on: Vero E6; assay: as above
[4] = tested on: HepG2; assay: as above
[5] = tested on: Caco-2; assay: as above
[6] = tested on: Calu-3; assay: relative viability EC50 (midpoint between 100% and the lowest measured viability); higher = less toxic
[7] = tested on: U2OS; assay: as above
[8] = tested on: Vero E6; assay: as above
[9] = tested on: HepG2; assay: as above
[10] = tested on: Caco-2; assay: as above
[11] = tested on: Calu-3; assay: drug sensitivity score (DSS) for viability; higher = more toxic; extreme values may be limits of the assay
[12] = tested on: U2OS; assay: as above
[13] = tested on: Vero E6; assay: as above
[14] = tested on: HepG2; assay: as above
[15] = tested on: Caco-2; assay: as above

SMILES	cell viability ([1]; 1 nM) [%]	cell viability ([1]; 10 nM) [%]	cell viability ([1]; 100 nM) [%]	cell viability ([1]; 1000 nM) [%]	cell viability ([1]; 10000 nM) [%]	cell viability ([2]; 1 nM) [%]	cell viability ([2]; 10 nM) [%]	cell viability ([2]; 100 nM) [%]	cell viability ([2]; 1000 nM) [%]	cell viability ([2]; 10000 nM) [%]	cell viability ([3]; 1 nM) [%]	cell viability ([3]; 10 nM) [%]	cell viability ([3]; 100 nM) [%]	cell viability ([3]; 1000 nM) [%]	cell viability ([3]; 10000 nM) [%]	cell viability ([4]; 1 nM) [%]	cell viability ([4]; 10 nM) [%]	cell viability ([4]; 100 nM) [%]	cell viability ([4]; 1000 nM) [%]	cell viability ([4]; 10000 nM) [%]	cell viability ([5]; 1 nM) [%]	cell viability ([5]; 10 nM) [%]	cell viability ([5]; 100 nM) [%]	cell viability ([5]; 1000 nM) [%]	cell viability ([5]; 10000 nM) [%]	relative viability EC50 [6] [µM]	relative viability EC50 [7] [µM]	relative viability EC50 [8] [µM]	relative viability EC50 [9] [µM]	relative viability EC50 [10] [µM]	drug sensitivity score [11]	drug sensitivity score [12]	drug sensitivity score [13]	drug sensitivity score [14]	drug sensitivity score [15]
NC(=O)c1ccc([N+](=O)[O-])cc1Cl [aklomide]	112	106	112	98.9	103	107	103	99.4	101	103	98.4	98.4	95.8	96.6	104	95.5	95.9	100	91	102	95.9	95.3	100	92.2	98.1	> 10	> 10	> 10	> 10	> 10	0	0	0	0	0
COc1ccc(C(=O)NCc2ccc(OCCN(C)C)cc2)cc1OC [itopride]	102	103	97.1	103	91.2	102	101	99.1	103	95.1	99.9	102	99.8	101	96.7	97.4	96.2	87.2	90.3	107	99	96.5	108	100	89.5	> 10	> 10	> 10	> 10	> 10	0	0	0	0	0
O=C(NC1CC1)c1cc(-c2cccs2)on1 [ISX-9]	93.6	105	104	99.7	84.3	97.7	98.4	98.4	102	85.5	111	96.5	108	99.4	101	104	95.8	102	103	87.6	98.1	98.3	93.3	101	87.6	> 10	> 10	> 10	> 10	> 10	0.3	0.1	0	0	0.1
COc1ccc(/C=C\c2cc(OC)c(OC)c(OC)c2)cc1O [combretastatin-A-4]	100	107	85.8	47.2	34.5	94.5	47.4	22.3	23.6	22.2	97.1	63.9	22.5	22.8	25.1	99.6	99.8	45.2	37.9	37.3	93.5	76.9	52.8	40.3	43.9	0.303	0.006	0.0107	0.0466	0.0175	11.5	30.8	28.4	18.3	19.1
OC[C@@H](O)[C@@H](O)[C@H](O)[C@@H](O)CO [sorbitol]	101	98	98.3	102	101	104	99.5	96.6	101	95.5	102	99.9	103	88.8	92.2	95.3	84	94.7	94.8	82.3	96.4	105	100	109	93.6	> 10	> 10	> 10	> 10	> 10	0	0	0.3	0	0
COc1cccc2cc(-c3nc([C@H]4CC[C@H](C(=O)O)CC4)n4ncnc(N)c34)[nH]c12 [OSI-027]	92.4	100	70.6	33.7	26.3	92.5	100	92.3	57.2	17.2	102	103	98.3	80.1	39.7	112	106	102	48.8	28.4	98.5	100	86.4	56.7	26.3	0.145	0.903	1.33	0.693	0.603	15.9	9.7	6.2	9.9	9.9
COc1ccc(Cl)cc1[C@]1(F)C(=O)Nc2cc(C(F)(F)F)ccc21 [flindokalner]	103	91.3	96.3	96.9	93.9	96.9	102	97.3	97.8	95.2	97.7	96.1	98.8	95.6	101	103	96.3	103	100	95.2	95.2	102	97.6	101	88.7	> 10	> 10	> 10	> 10	> 10	0	0	0	0	0

Source: the supplement of paper PMC13380429
